Source: patent US20140170210A1, “METHODS FOR TREATING IMMUNOSUPPRESSION” (TRUSTEES OF DARTMOUTH COLLEGE, priority 2011, published 2014)
Where two headings read alike, the source gives them in different places.

Key:
WT and Acat1-/- BM cells = assay: Proliferation of cultured BM cells, 3H-thymidine pulse; assay type: cell-based, mouse; settings: for effect on higher 3H-thymidine incorporation phenotype of Acat1-/- BM cells: 10 μM U0126, 1 μM PP2, 72 hours culture with growth factors
Procedure: WT and Acat1−/− BM cells were cultured in IMDM media containing 10% FBS in the presence of indicated growth factors with or without specific inhibitors as indicated for 72 hours. Concentrations of growth factors used: 100 ng/mL for stem cell factor, 6 ng/mL for IL3; 2 ng/ml for GM-CSF. Concentration of inhibitors used: 10 μM for U0126; 1 μM for PP2. Proliferation was measured after a 3 hour ^3H-thymidine pulse in intact cells. Results are means±SEM of duplicate cultures in 3 separate experiments. **P<0.01, * P<0.05 vs. WT.
For cell proliferation measurement in vivo, the manufacturer's protocol (BD Pharmingen; BrdU flow kit) was used. Age- and sex-matched mice of both genotypes were injected intraperitoneally twice, once every 12 hours, with 0.5 mg bromodeoxyuridine (BrdU)/injection/mouse. Twenty-four hours after the first injection, BM progenitor cells (LSKs, CMPs, GMPs, and MEPs) were stained and sorted as described earlier. Proliferation of each of the sorted cell populations was measured by measuring BrdU incorporation, using the BrdU flow kit (BD Pharmingen). Proliferation measurement of BM derived-myeloid cells in culture was carried out using a known method (Yvan-Charvet et al. 2010. supra). Briefly, after lysis of red blood cells from crude BM, cells were cultured in IMDM (Gibco) containing 10% fetal bovine serum (FBS) for 2 hours to remove attached cells. The unattached cells were replated for 72 hours in various conditions as described in FIG. 4. Stem cell factor, IL3, and GM-CSF were from R&D Systems. U0126, PP2, and ApoA1 were from Sigma. Squalene synthase inhibitor (SSI) compound CP-340868 was from Pfizer. Cells were pulsed with 2 μCi/mL ^3H-thymidine for 3 hours and ^3H-thymidine incorporation was monitored by using liquid scintillation counter.

ACAT2 = biological target: T1, ACAT2 (Chlorocebus aethiops, UniProt O77759); settings: read-out: selective inhibition, ACAT2; cited from earlier work
T1 sequence (O77759 1-526): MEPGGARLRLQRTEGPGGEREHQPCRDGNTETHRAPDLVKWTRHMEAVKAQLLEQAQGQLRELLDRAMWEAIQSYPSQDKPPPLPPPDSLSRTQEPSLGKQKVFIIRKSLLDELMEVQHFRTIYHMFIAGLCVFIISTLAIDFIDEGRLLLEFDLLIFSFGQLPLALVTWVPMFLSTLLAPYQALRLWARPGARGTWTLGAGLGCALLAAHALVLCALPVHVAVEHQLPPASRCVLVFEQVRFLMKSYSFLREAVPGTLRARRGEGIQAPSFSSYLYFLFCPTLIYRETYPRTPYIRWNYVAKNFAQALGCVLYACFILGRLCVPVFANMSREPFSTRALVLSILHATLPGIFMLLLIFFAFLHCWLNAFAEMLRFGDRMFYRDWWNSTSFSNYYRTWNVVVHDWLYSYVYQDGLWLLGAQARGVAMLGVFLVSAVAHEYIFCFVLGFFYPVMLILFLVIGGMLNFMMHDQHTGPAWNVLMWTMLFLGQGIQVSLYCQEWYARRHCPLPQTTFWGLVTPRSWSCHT

ACAT1 [1] = biological target: T2, ACAT1 (Homo sapiens, UniProt P35610); settings: cited from earlier work
T2 sequence (P35610 1-550): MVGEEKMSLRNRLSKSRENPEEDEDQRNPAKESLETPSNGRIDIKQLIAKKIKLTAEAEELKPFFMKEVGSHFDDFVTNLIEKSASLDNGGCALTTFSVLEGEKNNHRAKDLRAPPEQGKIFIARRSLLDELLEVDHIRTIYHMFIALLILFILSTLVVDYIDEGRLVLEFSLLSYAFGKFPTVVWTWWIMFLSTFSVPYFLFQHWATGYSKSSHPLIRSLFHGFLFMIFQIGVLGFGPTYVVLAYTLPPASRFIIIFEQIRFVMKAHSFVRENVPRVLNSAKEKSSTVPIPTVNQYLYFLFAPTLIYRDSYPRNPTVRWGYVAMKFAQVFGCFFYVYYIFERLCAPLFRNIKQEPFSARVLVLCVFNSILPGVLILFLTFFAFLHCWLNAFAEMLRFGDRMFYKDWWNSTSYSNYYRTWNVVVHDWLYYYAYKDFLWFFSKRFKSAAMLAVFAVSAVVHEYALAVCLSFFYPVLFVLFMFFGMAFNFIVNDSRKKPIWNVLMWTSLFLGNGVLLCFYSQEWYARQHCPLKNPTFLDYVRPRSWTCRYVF

hACAT-2 [2] = biological target: T3, hACAT-2 (Homo sapiens, UniProt O75908); settings: cited from earlier work
T3 sequence (O75908 1-522): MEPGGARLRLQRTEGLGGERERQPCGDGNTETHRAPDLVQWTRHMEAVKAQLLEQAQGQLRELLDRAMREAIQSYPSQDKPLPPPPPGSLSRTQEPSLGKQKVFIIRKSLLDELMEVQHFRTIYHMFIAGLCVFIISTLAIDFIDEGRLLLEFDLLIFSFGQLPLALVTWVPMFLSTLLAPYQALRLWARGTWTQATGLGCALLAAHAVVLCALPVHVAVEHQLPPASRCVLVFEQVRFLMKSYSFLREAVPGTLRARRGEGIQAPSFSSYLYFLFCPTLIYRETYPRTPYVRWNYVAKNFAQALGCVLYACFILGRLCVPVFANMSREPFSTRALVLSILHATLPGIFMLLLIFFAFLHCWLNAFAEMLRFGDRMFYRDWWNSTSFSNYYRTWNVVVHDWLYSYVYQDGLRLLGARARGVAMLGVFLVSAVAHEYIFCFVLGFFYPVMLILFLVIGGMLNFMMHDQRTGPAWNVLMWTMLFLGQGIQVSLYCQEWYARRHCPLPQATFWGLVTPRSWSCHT

[3] = laboratory animals; cited from earlier work
ACAT1 [4] = biological target: T2, ACAT1; settings: cited from earlier work; remark: listed apart in the source
ACAT1 and ACAT2 = settings: cited from earlier work
[5] = tested on: atherosclerosis, familial hypercholesterolemia; settings: patients with high risk for atherosclerosis or familial hypercholesterolemia; cited from earlier work
ACAT1 [6] = biological target: T2, ACAT1; settings: cited from earlier work; remark: listed apart in the source
hACAT-2 [7] = biological target: T3, hACAT-2; settings: cited from earlier work; remark: listed apart in the source
[8] = rats, dogs, and humans; cited from earlier work
human macrophages = settings: in vitro; cited from earlier work
coronary atherosclerosis = settings: in combination with a statin drug, patients; cited from earlier work
[9] = tested on: amyloid plaque load and cognitive deficits; settings: cited from earlier work
[10] = tested on: cholesterol ester content in various systemic tissues; settings: 4-30 mg/kg/day, small animals; cited from earlier work
mouse ACAT1 = assay: ACAT1 knockdown by Acat1 miRs in NIH-3T3 mouse fibroblasts; assay type: cell-based; settings: pre-microRNAs SEQ ID NO:5 and 6
Source text: Four different siRNA sequences (#52-#55) targeting the mouse Acat1 (also called Soat1) gene were inserted into an endogenous mouse microRNA (miR) scaffold using Invitrogen's RNAi design tool. The artificial miRs were ligated into the mammalian expression vector pcDNA6.2-GW/EmGFP-miR. […] The miRs were delivered to the cells by using standard cDNA transfection protocol. […] These two Acat1 miR sequences and the NC miR sequence were also subcloned into an rAAV backbone vector (AAV-6P-SEWB) that contained the […]. This vector contains a strong and cell-type-nonspecific promoter that expresses Acat1 miRs in any cell type where the viral genome is expressed. For identification purpose, it also coexpresses the GFP with the miRs. These three constructs were used to produce three recombinant AAV viruses. To test the efficacy and specificity of these viruses, cultured primary hippocampal neurons were treated with the NC AAV, or with AAV that expresses miR that contain siRNA Acat1 #55. Two weeks after viral infection, the effects of AAVs on cholesteryl ester biosynthesis in neurons were tested. […] One month after injection, mice were sacrificed and the ACAT1 enzyme activities in the mouse brain homogenates were analyzed by using standard ACAT enzyme activity assay in vitro.

[11] = mouse model for Alzheimer disease

Question: For `N#CC(=C(/N)Sc1ccccc1N)/C(C#N)=C(\N)Sc1ccccc1N` [U0126], which “effect on higher 3H-thymidine incorporation phenotype of Acat1-/- BM cells” value (WT and Acat1-/- BM cells) is on record?
Answer: partially alleviated

Question: Which IC50 (ACAT2) does the source give for beauveriolide I here?
Answer: 20 µM

Question: Which results are given for saucerneol B?
Answer: IC50 (ACAT1 [1]): 43 µM; IC50 (hACAT-2 [2]): 124 µM

Question: Which “safety for use in vivo” value [3] does the source give for `CSc1cc(C)nc(SC)c1NC(=O)CN1CCN(CCSc2nc3ccccc3[nH]2)CC1` [K-604] here?
Answer: safe

Question: For `CCOC(=O)OC(=O)OCC` [diethyl pyrocarbonate], which “greater activity on ACAT1 compared to ACAT-2” value (ACAT1 [4]) is on record?
Answer: 4 fold

Question: Which “relative potency on ACAT1 and ACAT2” value (ACAT1 and ACAT2) does the source give for `CCCCCCCCN1CCc2c(C)c(CC(=O)O)c(C)c(NC(=O)C(C)(C)C)c21` [Pactimibe] here?
Answer: approximately equal potency

Question: What about the “efficacy as a supplement to statin treatment” value [5] of the same molecule?
Answer: lacked efficacy

Question: For `CC(C)(C)n1nc(-c2ccc(Cl)cc2)c2c(N)ncnc21` [PP2], which “effect on higher 3H-thymidine incorporation phenotype of Acat1-/- BM cells” value (WT and Acat1-/- BM cells) is on record?
Answer: partially alleviated

Question: What does the source list for `CC(C)c1cc(C(C)C)c(CC(=O)NS(=O)(=O)Oc2c(C(C)C)cccc2C(C)C)c(C(C)C)c1` [Avasimibe]?
Answer: IC50 (ACAT1 [6]): 18.7 µM; IC50 (hACAT-2 [7]): 19.1 µM; safety when administered [8]: safe; foam cell formation in macrophages (human macrophages): reduces foam cell formation; efficacy to further reduce progression of coronary atherosclerosis (coronary atherosclerosis): failed to demonstrate efficacy; activity in a mouse model for Alzheimer's disease ([9]; 14.4 mg/kg/day): beneficial activity; amyloid plaque load [9, 11]: significant decreases; cognitive deficits [9, 11]: reduction in cognitive deficits; reducing cholesterol ester content in various systemic tissues [10]: effective

Question: Which “effect on enhanced proliferation of Acat1-/- BM cells” value (WT and Acat1-/- BM cells; ApoA1 at 50 or 100 μg/ml) does the source give for “ApoA1: a cellular cholesterol efflux mediator” here?
Answer: did not diminish

Question: With `COc1ccc([C@@H](O)[C@@H](C)Oc2ccc([C@H]3O[C@H](c4ccc(O[C@H](C)[C@H](O)c5ccc6c(c5)OCO6)c(OC)c4)[C@H](C)[C@H]3C)cc2OC)cc1OC` [manassantin B] as the molecule, how does the “inhibition of hACAT-2” value (hACAT-2 [2]; at 1 mM) read?
Answer: 32%

B1: #54: microRNA against mouse ACAT1, target sequence SEQ ID NO:3; pre-microRNA SEQ ID NO:5 (nucleic acid)
chain: TGCTGTCCAGTATCAGAATGAACCGGGTTTTGGCCACTGACTGACCCGGTTCACTGATACTGGA
modifications: expressed or natural sequence
Question: Which “mouse ACAT1 expression” value (mouse ACAT1) does the source give for B1 here?
Answer: decrease

B2: #55: microRNA against mouse ACAT1, target sequence SEQ ID NO:4; pre-microRNA SEQ ID NO:6 (nucleic acid)
chain: TGCTGTACAGTAGGAGTCCTTGGGTAGTTTTGGCCACTGACTGACTACCCAAGCTCCTACTGTA
modifications: expressed or natural sequence
Question: For B2, which “mouse ACAT1 expression” value (mouse ACAT1) is on record?
Answer: decrease
